Laboratory results taken from ChEMBL document CHEMBL1155702, “New tirucallane-type triterpenes from Dysoxylum variabile” (J Nat Prod, 2001).
≈ marks a conversion by molar mass, not a printed value.

System: KB
Experiment: Cytotoxicity against human KB cells
Type: functional, cell-based

For C[C@H](C[C@@H](O)[C@@H]1OC1(C)C)[C@@H]1CC[C@]2(C)[C@]34O[C@@H]3C[C@H]3C(C)(C)C(=O)CC[C@]3(C)[C@H]4CC[C@@]12C [DYVARIABILIN B], the IC50 was 10 µg/mL (≈ 21.2 µM).
C[C@H](C[C@@H](O)[C@@H]1OC1(C)C)[C@@H]1CC[C@]2(C)[C@@]34O[C@H]3C[C@H]3C(C)(C)C(=O)CC[C@]3(C)[C@H]4CC[C@@]12C [DYVARIABILIN C] was tested, and the IC50 was 8.7 µg/mL (≈ 18.4 µM).
C[C@H](C[C@@H](O)[C@@H]1OC1(C)C)[C@@H]1CC[C@]2(C)C3=CC[C@H]4C(C)(C)C(=O)CC[C@]4(C)[C@H]3CC[C@@]12C [NILOTICIN] was tested, and the IC50 was 8.4 µg/mL (≈ 18.4 µM).
